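Exposure lasted 48 hours, with cells grown in 96-well plates and compounds tested at five concentrations. At the GI50, growth is halved.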 Activity calls are given as the source filed them. No stated cut-off is given here; in the data, active = GI50 up to about 1.1 µM and inactive = higher. Positions of bridges follow the written chain, without caps; N, C: chain ends. Residues, ends and D or L forms follow the SMILES beside them. Some results are limits rather than exact numbers.

Eleven compounds from ChEMBL document CHEMBL1201862, “PubChem BioAssay data set” (2004) can be followed below.

Among the test systems are MDA-MB-231; LOX IMVI; NCI-H522; BT-549; NCI-H226; CAKI-1; SF-539; HOP-92; EKVX; HCT-116; Malme-3M; OVCAR-8; HCC 2998; NCI-H23; UO-31; T47D; COLO 205; SNB-75; NCI/ADR-RES; ACHN.
Holding throughout (test): growth of human tumour cells (NCI), 48 h

As for `Cc1cc(N(CCC#N)S(=O)(=O)c2ccccc2)ccc1/C=N/c1ccc(C(=O)O)cc1`, the GI50 was > 100 µM (inactive) in the test with MDA-MB-231; 13.2 µM (inactive) in the test with LOX IMVI; 5.51 µM (inactive) in the test with NCI-H522; > 100 µM (inactive) in the test with BT-549; 21.8 µM (inactive) with NCI-H226; 2.23 µM (inactive) with CAKI-1. Further, the GI50 in the test on SF-539 is 15.2 µM (inactive); in the test with HOP-92, > 100 µM (inactive); in the test on EKVX it was 17.9 µM (inactive); with HCT-116, 7.87 µM (inactive); in the test with Malme-3M, 4.61 µM (inactive); in the test with OVCAR-8, 7.71 µM (inactive). Also, the GI50 in the test on HCC 2998 is 16.8 µM (inactive); with NCI-H23, 16.1 µM (inactive); in the test on UO-31, 11.1 µM (inactive); in the test on T47D it was > 100 µM (inactive); with COLO 205 it was 6.41 µM (inactive); in the test with SNB-75 it was 14 µM (inactive).
Consider `N#Cc1c(-c2ccccc2)c(C=O)c(=O)n2c1[nH]c1ccccc12`, for which the GI50 in the test with MDA-MB-231 was 38.2 µM (inactive); in the test with NCI-H522, 55.6 µM (inactive); with BT-549 it was 39.1 µM (inactive); in the test on NCI-H226, 55.6 µM (inactive); in the test with CAKI-1, > 100 µM (inactive); in the test on SF-539, 77.1 µM (inactive). Further, the GI50 with EKVX is > 100 µM (inactive); in the test with HCT-116, 82.4 µM (inactive); in the test on Malme-3M, > 100 µM (inactive); in the test on OVCAR-8 it was > 100 µM (inactive); in the test on NCI-H23, 61.7 µM (inactive); in the test with UO-31, 40.6 µM (inactive). The GI50 with T47D is 65.9 µM (inactive); with COLO 205, 53.1 µM (inactive); in the test with NCI/ADR-RES, > 100 µM (inactive); in the test on ACHN, 78.3 µM (inactive); with SNB-75, 22.1 µM (inactive).
Turning to `CCN(CC)Cc1cc(Nc2c3ccccc3nc3c2[nH]c2ccccc23)cc(CN(CC)CC)c1O`, the GI50 is 1.05 µM (active) in the test on MDA-MB-231; 0.624 µM (active) in the test on NCI-H522; 1.41 µM (inactive) in the test with BT-549; 2.45 µM (inactive) in the test with NCI-H226; 1.77 µM (inactive) in the test with CAKI-1; 1.08 µM (active) in the test with SF-539. Moreover, the GI50 was 1.14 µM (inactive) in the test with HOP-92; 1.45 µM (inactive) in the test on EKVX; 0.33 µM (active) in the test on HCT-116; 0.5 µM (active) in the test with OVCAR-8; 0.836 µM (active) with HCC 2998; 1.11 µM (active) with NCI-H23. Further, the GI50 in the test on UO-31 is 1.68 µM (inactive); in the test on T47D, 2.67 µM (inactive); in the test on COLO 205 it was 0.366 µM (active); in the test with ACHN, 0.634 µM (active); in the test on SNB-75, 1.22 µM (inactive).
For the compound `Nc1ncc(CN2CCOCC2)c(-c2ccccc2O)n1`, the GI50 with MDA-MB-231, with LOX IMVI, with BT-549, in the test with NCI-H226, in the test on CAKI-1 and in the test with SF-539 was > 100 µM (inactive) throughout. Moreover, the GI50 with HOP-92, in the test with EKVX, in the test with HCT-116, with Malme-3M, in the test on OVCAR-8 and in the test with NCI-H23 was > 100 µM (inactive) each time. Also, the GI50 in the test on UO-31, in the test on T47D, in the test with COLO 205, in the test with NCI/ADR-RES, in the test on ACHN and with SNB-75 was > 100 µM (inactive) each time.
For `CN1C(=O)N(C)C2(CCN(CCCCCCF)CC2)C1=O`, the GI50 with MDA-MB-231 was > 100 µM (inactive); in the test with LOX IMVI, > 100 µM (inactive); in the test on NCI-H522, > 100 µM (inactive); in the test on BT-549, 23.3 µM (inactive); in the test with NCI-H226, > 100 µM (inactive); in the test on CAKI-1, > 100 µM (inactive). Further, the GI50 in the test on SF-539, in the test on EKVX, in the test on HCT-116, in the test with Malme-3M, with OVCAR-8 and in the test on HCC 2998 was > 100 µM (inactive) in each case. The GI50 in the test on NCI-H23, in the test with UO-31, with T47D, in the test on COLO 205, in the test with NCI/ADR-RES and in the test on ACHN was > 100 µM (inactive) throughout. In addition, the GI50 in the test on SNB-75 was > 100 µM (inactive).
Regarding `O=c1c2cccnc2cc(-c2ccccc2)n1CCO`, the GI50 in the test with MDA-MB-231, in the test on LOX IMVI, in the test on NCI-H522, with BT-549, with NCI-H226 and with EKVX was > 100 µM (inactive) in each case. Moreover, the GI50 with HCT-116, in the test on Malme-3M, in the test on OVCAR-8, in the test on HCC 2998, with NCI-H23 and with UO-31 was > 100 µM (inactive) in each case. The GI50 in the test with T47D, with COLO 205, with NCI/ADR-RES, in the test with ACHN and with SNB-75 was > 100 µM (inactive) each time.
On to `C=CC1(C)CCC2C(=CCC3C(C)(COC4OC(C(=O)O)C(O)C(O)C4O)C(O)CCC23C)C1.C=CC1(C)CCC2C(=CCC3C2(C)CC(O)C(O)C3(C)COC2OC(C(=O)O)C(O)C(O)C2O)C1` (stereo not drawn), for which the GI50 with MDA-MB-231, in the test on LOX IMVI, in the test with NCI-H522, in the test on BT-549, in the test on NCI-H226 and in the test on CAKI-1 was > 100 µM (inactive) each time. Moreover, the GI50 in the test with SF-539, in the test with HOP-92, with EKVX, with HCT-116, in the test on Malme-3M and in the test on OVCAR-8 was > 100 µM (inactive) throughout. Further, the GI50 with HCC 2998, with NCI-H23, in the test on UO-31, with T47D, in the test with COLO 205 and in the test with ACHN was > 100 µM (inactive) throughout. Also, in the test with SNB-75, the GI50 was > 100 µM (inactive).
As for `O=C1c2cc3c(cc2CC1Br)CCC3` (stereo not drawn), the GI50 is 4.47 µM (inactive) with MDA-MB-231; 0.369 µM (active) in the test with LOX IMVI; 1.45 µM (inactive) with NCI-H522; 1.96 µM (inactive) in the test with BT-549; 3.36 µM (inactive) in the test on NCI-H226; 1.71 µM (inactive) with CAKI-1. Besides, the GI50 in the test with SF-539 is 2.03 µM (inactive); in the test on EKVX, 14.6 µM (inactive); in the test on HCT-116 it was 1.53 µM (inactive); in the test with Malme-3M, 1.01 µM (active); in the test on OVCAR-8 it was 1.98 µM (inactive); in the test on HCC 2998 it was 5.64 µM (inactive). Moreover, the GI50 is 3 µM (inactive) in the test on NCI-H23; 10.6 µM (inactive) in the test with UO-31; 2.39 µM (inactive) with T47D; 1.97 µM (inactive) with COLO 205; 4.14 µM (inactive) in the test on NCI/ADR-RES; 3.8 µM (inactive) with ACHN. Moreover, the GI50 with SNB-75 was 2.93 µM (inactive).
In the case of `CCCOc1ccc2sc(NC(=O)c3cc([N+](=O)[O-])cc([N+](=O)[O-])c3)nc2c1`, the GI50 with MDA-MB-231 was 35 µM (inactive); in the test on LOX IMVI, 20.8 µM (inactive); in the test on BT-549, 47.8 µM (inactive); in the test on NCI-H226, 27.9 µM (inactive); in the test with CAKI-1, 28.6 µM (inactive); with SF-539 it was 29.2 µM (inactive). Also, the GI50 is 16 µM (inactive) in the test with HOP-92; 19.4 µM (inactive) in the test with EKVX; 20.6 µM (inactive) in the test with HCT-116; 25.4 µM (inactive) with Malme-3M; 31.3 µM (inactive) with OVCAR-8; 23 µM (inactive) in the test with NCI-H23. Moreover, the GI50 in the test on UO-31 is 18.5 µM (inactive); in the test on T47D, 53.2 µM (inactive); with COLO 205, 54.1 µM (inactive); in the test with NCI/ADR-RES, 22.6 µM (inactive); in the test with ACHN, 48.4 µM (inactive); in the test with SNB-75 it was 30.5 µM (inactive).
`O=C1CCCCC/C1=C\c1ccc(Cl)cc1`: the GI50 with MDA-MB-231 was 73.6 µM (inactive); in the test on LOX IMVI, 28.9 µM (inactive); in the test on NCI-H522 it was 25.4 µM (inactive); in the test on BT-549 it was 31.2 µM (inactive); with NCI-H226, 81.1 µM (inactive); in the test on CAKI-1 it was 37.8 µM (inactive). Besides, the GI50 was 35.7 µM (inactive) with HOP-92; 44.3 µM (inactive) in the test on EKVX; 35.4 µM (inactive) in the test with HCT-116; 52.6 µM (inactive) in the test on Malme-3M; 26.2 µM (inactive) in the test with HCC 2998; 31.6 µM (inactive) in the test with NCI-H23. The GI50 in the test on UO-31 was 27.2 µM (inactive); in the test with T47D, 37.3 µM (inactive); in the test on COLO 205, 18.2 µM (inactive); with ACHN it was 32.1 µM (inactive); in the test with SNB-75, 17 µM (inactive).
In the case of `COC(=O)C1CCC(=O)NCCCCC(NC(=O)C(N)CC(=O)O)C(=O)N1` (stereo not drawn) (H-Asp-Lys-Glu-OMe; lactam 2-3; configuration not given here), the GI50 in the test with MDA-MB-231 is > 100 µM (inactive); with LOX IMVI, > 100 µM (inactive); in the test on NCI-H522, > 100 µM (inactive); with BT-549, > 100 µM (inactive); with NCI-H226, > 100 µM (inactive); with CAKI-1 it was 82 µM (inactive). Moreover, the GI50 is > 100 µM (inactive) in the test on SF-539; > 100 µM (inactive) in the test with EKVX; 60 µM (inactive) with HCT-116; > 100 µM (inactive) with Malme-3M; > 100 µM (inactive) in the test with OVCAR-8; > 100 µM (inactive) in the test with HCC 2998. Further, the GI50 is 92.5 µM (inactive) with NCI-H23; > 100 µM (inactive) in the test with UO-31; > 100 µM (inactive) with T47D; > 100 µM (inactive) in the test with COLO 205; > 100 µM (inactive) in the test with NCI/ADR-RES; 41.2 µM (inactive) with ACHN. For the same compound, the GI50 with SNB-75 was 88.7 µM (inactive).
